Experiments:
Assay type in all cases: cell-based
M4 muscarinic receptor = biological target: T1, M4 muscarinic receptor (Homo sapiens, UniProt P08173); experiment: Functional mobilization of intracellular calcium (FLIPR), M4-CHO cells; settings: for M4 Activity: M4-CHO cells, calcium mobilization (FLIPR)
T1 construct: expressed in transfected cells; host or cells: CHO (M4-CHO)
T1 sequence (P08173 1-479): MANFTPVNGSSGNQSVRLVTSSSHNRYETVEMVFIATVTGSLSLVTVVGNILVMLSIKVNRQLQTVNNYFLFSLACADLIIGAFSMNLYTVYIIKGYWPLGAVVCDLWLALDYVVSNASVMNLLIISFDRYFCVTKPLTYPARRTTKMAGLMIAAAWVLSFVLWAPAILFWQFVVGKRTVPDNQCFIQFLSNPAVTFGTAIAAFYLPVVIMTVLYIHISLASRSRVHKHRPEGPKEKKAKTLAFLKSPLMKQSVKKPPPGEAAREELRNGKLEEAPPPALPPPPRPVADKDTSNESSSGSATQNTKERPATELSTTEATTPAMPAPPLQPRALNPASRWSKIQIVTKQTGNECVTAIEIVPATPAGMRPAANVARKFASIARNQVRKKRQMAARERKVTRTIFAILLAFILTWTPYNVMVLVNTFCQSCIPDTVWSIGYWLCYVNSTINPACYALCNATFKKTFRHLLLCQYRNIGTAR
Method in brief: (§1)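 FLIPR fluorescence (ex 488, em 540 nm) recorded 60 sec after compound addition to dye-loaded CHO cells. Agonist mode: compound alone. Antagonist mode: 15 min compound pre-incubation, then carbachol at EC80, or co-application. Efficacy expressed as % of maximal carbachol response.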

M1 muscarinic receptor = biological target: T2, M1 muscarinic receptor (Homo sapiens, UniProt P11229); experiment: Functional mobilization of intracellular calcium (FLIPR), M1-CHO cells; settings: for M1 Activity: M1-CHO cells, calcium mobilization (FLIPR)
T2 construct: expressed in transfected cells; host or cells: CHO (M1-CHO)
T2 sequence (P11229 1-460): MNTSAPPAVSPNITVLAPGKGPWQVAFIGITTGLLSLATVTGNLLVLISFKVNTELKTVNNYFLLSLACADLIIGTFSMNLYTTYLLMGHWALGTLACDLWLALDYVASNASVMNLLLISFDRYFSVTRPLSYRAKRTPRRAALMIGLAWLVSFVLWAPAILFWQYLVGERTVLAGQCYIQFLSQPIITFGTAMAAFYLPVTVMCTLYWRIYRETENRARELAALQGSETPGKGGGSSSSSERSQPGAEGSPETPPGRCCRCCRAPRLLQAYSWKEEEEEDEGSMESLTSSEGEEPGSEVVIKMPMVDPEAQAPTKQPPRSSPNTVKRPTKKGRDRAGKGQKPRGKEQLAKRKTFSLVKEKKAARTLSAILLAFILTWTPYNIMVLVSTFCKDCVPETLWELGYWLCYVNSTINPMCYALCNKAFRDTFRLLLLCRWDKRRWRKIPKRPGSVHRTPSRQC
Method in brief: as §1

M3 muscarinic receptor = biological target: T3, M3 muscarinic receptor (Homo sapiens, UniProt P20309); experiment: Functional mobilization of intracellular calcium (FLIPR), M3-CHO cells; settings: for M3 Activity: M3-CHO cells, calcium mobilization (FLIPR)
T3 construct: expressed in transfected cells; host or cells: CHO (M3-CHO)
Method in brief: as §1

M2 muscarinic receptor = biological target: T4, M2 muscarinic receptor (Homo sapiens, UniProt P08172); experiment: Functional mobilization of intracellular calcium (FLIPR), M2-CHO cells; settings: for M2 Activity: M2-CHO cells, calcium mobilization (FLIPR)
T4 construct: expressed in transfected cells; host or cells: CHO (M2-CHO)
T4 sequence (P08172 1-466): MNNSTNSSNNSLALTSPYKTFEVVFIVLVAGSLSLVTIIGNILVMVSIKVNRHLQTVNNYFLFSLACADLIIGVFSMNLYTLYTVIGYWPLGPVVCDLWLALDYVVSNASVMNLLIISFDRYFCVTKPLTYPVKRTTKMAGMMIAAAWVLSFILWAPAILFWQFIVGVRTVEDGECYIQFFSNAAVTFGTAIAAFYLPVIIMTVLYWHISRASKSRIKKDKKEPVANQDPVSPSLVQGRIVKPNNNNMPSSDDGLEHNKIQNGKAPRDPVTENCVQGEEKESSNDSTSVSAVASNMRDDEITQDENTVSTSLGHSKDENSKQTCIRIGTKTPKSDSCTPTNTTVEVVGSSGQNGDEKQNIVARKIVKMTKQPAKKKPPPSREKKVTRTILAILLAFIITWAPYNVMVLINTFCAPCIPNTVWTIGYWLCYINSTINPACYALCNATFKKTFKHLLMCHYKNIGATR
Method in brief: as §1

[1] = 100% efficacy = maximum response obtained with the Carbachol control
[2] = 100% efficacy is the maximum response obtained with the Carbachol control

T3 sequence (P20309 whole entry): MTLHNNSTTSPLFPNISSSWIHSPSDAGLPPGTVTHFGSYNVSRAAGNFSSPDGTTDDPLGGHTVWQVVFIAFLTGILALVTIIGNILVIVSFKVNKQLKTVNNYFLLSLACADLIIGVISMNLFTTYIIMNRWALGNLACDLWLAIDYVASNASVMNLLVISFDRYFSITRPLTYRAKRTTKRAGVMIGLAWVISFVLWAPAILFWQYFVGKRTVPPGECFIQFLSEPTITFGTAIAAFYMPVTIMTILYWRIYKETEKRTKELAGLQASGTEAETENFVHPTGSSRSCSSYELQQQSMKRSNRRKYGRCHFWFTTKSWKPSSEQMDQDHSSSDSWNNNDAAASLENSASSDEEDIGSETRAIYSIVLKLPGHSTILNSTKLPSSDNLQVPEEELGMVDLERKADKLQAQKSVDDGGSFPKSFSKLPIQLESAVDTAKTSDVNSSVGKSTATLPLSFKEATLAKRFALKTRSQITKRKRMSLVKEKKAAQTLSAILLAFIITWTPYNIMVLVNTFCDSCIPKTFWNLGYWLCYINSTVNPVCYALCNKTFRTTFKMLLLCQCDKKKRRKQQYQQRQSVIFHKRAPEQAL

| Compound | Emax (M4 muscarinic receptor; [1]) | M4 Activity (M4 muscarinic receptor) | Emax (M1 muscarinic receptor; [1]) | M1 Activity (M1 muscarinic receptor) | Emax (M3 muscarinic receptor; [1]) | M3 Activity (M3 muscarinic receptor) | Emax (M2 muscarinic receptor; [1]) | M2 Activity (M2 muscarinic receptor) | Emax (M4 muscarinic receptor; [2]) | Emax (M1 muscarinic receptor; [2]) | Emax (M3 muscarinic receptor; [2]) | Emax (M2 muscarinic receptor; [2]) |
| --- | --- | --- | --- | --- | --- | --- | --- | --- | --- | --- | --- | --- |
| COc1ccc(-c2ccc(C(=O)N3CCCC3)cc2)cc1C1CCN([C@H]2C[C@H]3CC[C@H]2C3)CC1 [Compound 17] | 25 to 100% | ++ (activity was measured to be from 1.0 μM to 5.0 μM) | < 25% | + (activity was measured to be greater than 5.0 μM) | < 25% | + (activity was measured to be greater than 5.0 μM) | < 25% | + (activity was measured to be greater than 5.0 μM) |  |  |  |  |
| COc1ccc(-c2ccc3c(c2)OCO3)cc1C1CCN(C2C[C@@H]3CC[C@@H]2C3)CC1 (some centres unmarked) [Compound 284] | 25 to 100% | + (activity was measured to be greater than 5.0 μM) | 25 to 100% | + (activity was measured to be greater than 5.0 μM) | 25 to 100% | + (activity was measured to be greater than 5.0 μM) | < 25% | + (activity was measured to be greater than 5.0 μM) |  |  |  |  |
| CCOC(=O)N1C2CCC1CC(N1CCC(c3cc(-c4ccc(C(C)(C)C#N)cc4)ccc3OC)CC1)C2 (centres unmarked) [Compound 33] | 25 to 100% | ++ (activity was measured to be from 1.0 μM to 5.0 μM) | 25 to 100% | ++ (activity was measured to be from 1.0 μM to 5.0 μM) | < 25% | + (activity was measured to be greater than 5.0 μM) | < 25% | + (activity was measured to be greater than 5.0 μM) |  |  |  |  |
| CCOC(=O)N1C2CCC1CC(N1CCC(c3cc(-c4ccc(CC#N)cc4)ccc3OC)CC1)C2 (centres unmarked) [Compound 254] | 25 to 100% | ++ (activity was measured to be from 1.0 μM to 5.0 μM) | 25 to 100% | + (activity was measured to be greater than 5.0 μM) | < 25% | + (activity was measured to be greater than 5.0 μM) | < 25% | + (activity was measured to be greater than 5.0 μM) |  |  |  |  |
| COc1ccccc1C1CCN(C2CCC3CCC2C3)CC1 (centres unmarked) [Compound 221] | 25 to 100% | +++ (activity was measured to be less than 1.0 μM) | 25 to 100% | + (activity was measured to be greater than 5.0 μM) | < 25% | + (activity was measured to be greater than 5.0 μM) | < 25% | + (activity was measured to be greater than 5.0 μM) |  |  |  |  |
| COc1ccccc1C1CCN([C@@H]2C[C@H]3CC[C@H]2C3)CC1 [Compound 85] | 25 to 100% | +++ (activity was measured to be less than 1.0 μM) | 25 to 100% | + (activity was measured to be greater than 5.0 μM) | < 25% | + (activity was measured to be greater than 5.0 μM) | < 25% | + (activity was measured to be greater than 5.0 μM) |  |  |  |  |
| Fc1ccc(-c2ccccc2C2CCN([C@H]3C[C@H]4CC[C@H]3C4)CC2)cc1 [Compound 294] | 25 to 100% | ++ (activity was measured to be from 1.0 μM to 5.0 μM) | < 25% | + (activity was measured to be greater than 5.0 μM) | < 25% | + (activity was measured to be greater than 5.0 μM) | < 25% | + (activity was measured to be greater than 5.0 μM) |  |  |  |  |
| CCOC(=O)N1CCC(CN2CCC(c3ccccc3C(F)(F)F)CC2)CC1 [Compound 405] |  | +++ (activity was measured to be less than 1.0 μM) |  | +++ (activity was measured to be less than 1.0 μM) |  | + (activity was measured to be greater than 5.0 μM) |  | ++ (activity was measured to be from 1.0 μM to 5.0 μM) | > 100% | 25 to 100% | < 25% | 25 to 100% |
| COc1cc(F)ccc1C1CCN([C@@H]2C[C@H]3CC[C@H]2C3)CC1 [Compound 35] | 25 to 100% | +++ (activity was measured to be less than 1.0 μM) | 25 to 100% | + (activity was measured to be greater than 5.0 μM) | < 25% | + (activity was measured to be greater than 5.0 μM) | < 25% | + (activity was measured to be greater than 5.0 μM) |  |  |  |  |
| COc1ccc(Cl)cc1C1(F)CCN([C@H]2C[C@H]3CC[C@H]2C3)CC1 [Compound 367] | < 25% | + (activity was measured to be greater than 5.0 μM) | < 25% | + (activity was measured to be greater than 5.0 μM) | < 25% | + (activity was measured to be greater than 5.0 μM) | < 25% | + (activity was measured to be greater than 5.0 μM) |  |  |  |  |
| N#Cc1ccc(C2CCN(C3CCOCC3)CC2)cc1 [Compound 415] |  | + (activity was measured to be greater than 5.0 μM) |  | + (activity was measured to be greater than 5.0 μM) |  | + (activity was measured to be greater than 5.0 μM) |  | + (activity was measured to be greater than 5.0 μM) | 25 to 100% | < 25% | < 25% | < 25% |
| Cc1ccc(C)c(C2(O)CCN(C3CC4CCC3C4)CC2)c1 (centres unmarked) [Compound 135] | < 25% | + (activity was measured to be greater than 5.0 μM) | 25 to 100% | + (activity was measured to be greater than 5.0 μM) |  | + (activity was measured to be greater than 5.0 μM) | < 25% | + (activity was measured to be greater than 5.0 μM) |  |  |  |  |
